From patent US10416170B2, “Detection and removal of misfolded proteins/peptides” (OXPROTECT GMBH, priority 2011, dated 2019)

Test system: misfolded proteins
Assay: Binding of misfolded proteins to biotinylated peptide on streptavidin plate (OD 492 nm) or Biacore sensor chip
Conditions: statement in words; data only in figures
Protocol: Biotinylated PRKLYDY (SEQ ID NO: 5) was coated on a preblocked streptavidin plate for 1 hour at room temperature. After a washing step different concentrations of HOCl-modified albumin, or HOCl-modified fibrinogen, or HOCl-modified antithrombin, or HOCl-modified LDL (including negative control) were added for 1 hour at room temperature. After another washing step mouse anti HSA antibody was added to HOCl-modified albumin, rabbit anti fibrinogen antibody to HOCl-modified fibrinogen, rabbit anti antithrombin antibody to HOCl-modified antithrombin and mouse anti Apo B antibody to HOCl-modified LDL for 1 hour at room temperature. After another washing step the corresponding peroxidase coupled secondary antibody was added for 1 hour at room temperature. After a final washing step it was stained with o-phenylenediamine-substrate and the reaction was stopped after 30 min with 4 N sulphuric acid. The optical density was measured at 492 nm. The result is illustrated in FIG. 1A and FIG. 1B.
Biotinylated HWRRAHLLPRLP (SEQ ID NO: 2) was coated on a preblocked streptavidin plate for 1 hour at room temperature. After a washing step different concentrations of HOCl-modified albumin, or HOCl-modified fibrinogen, or HOCl-modified antithrombin, or HOCl-modified LDL (including negative control) were added for 1 hour at room temperature. […] The optical density was measured at 492 nm (FIG. 8A and FIG. 8B). […]

| Substance | affinity for misfolded proteins (general binding partner) |
| --- | --- |
| PRKLYDY (Plasminogen peptide) [Pro, Arg, Lys, Leu, Tyr, Asp, Tyr] | high affinity |
| HWRRAHLLPRLP (ADAM15 peptide aa position 286-297) [His, Trp, Arg, Arg, Ala, His, Leu, Leu, Pro, Arg, Leu, Pro] | high degree of affinity |
